The text below walks through data of ChEMBL document CHEMBL5625161, “Pharmacological activity and mechanism of pyrazines” (Eur J Med Chem, 2023).

Broadly, the IC50 is the concentration that gives 50% inhibition. As usually defined, the MIC99 is an inhibitory concentration at the 99% level, which refers to growth in some studies and to a panel of isolates in others.

SMILES strings stand for the structures. In brackets after ≈: the same amount, converted by molar mass.

One data set relates to A549. As to the kind of experiment: Cytotoxicity against human A549 cells assessed as reduction in cell growth measured after 24 hrs by MTT assay. The format is functional, cell-based. The following applies: A549, 24 h.
Another data set has as its system DU-145. The data set can be described thus: Antiproliferative activity against human DU-145 cells assessed as reduction in cell growth incubated for 48 hrs by CCK-8 assay. As to conditions: DU-145, 48 h. Format: functional, cell-based.
Data set [1] concerns MCF7. As to the kind of experiment: Antiproliferative activity against human MCF7 cells assessed as reduction in cell growth incubated for 48 hrs by CCK-8 assay. The following applies: MCF7, 48 h. Format: functional, cell-based.
The subject of a further data set is NCI-H460. As to the kind of experiment: Antiproliferative activity against human NCI-H460 cells assessed as reduction in cell growth incubated for 48 hrs by CCK-8 assay. Format: functional, cell-based. As to conditions: NCI-H460, 48 h. (In general: Formazan colour is commonly taken as a measure of viable cells.)
Another data set concerns SGC-7901. As to the kind of experiment: Antiproliferative activity against human SGC-7901 cells assessed as reduction in cell viability measured after 72 hrs by MTT assay. As to conditions: SGC-7901, 72 h. Format: functional, cell-based.
Data set [2] can be described thus: Antiproliferative activity against human PaTu8988 cells assessed as reduction in cell viability measured after 72 hrs by MTT assay. The following applies: PaTu8988, 72 h. Format: functional, cell-based.
In another data set the test system is SMMC-7721. The data set can be described thus: Antiproliferative activity against human SMMC-7721 cells assessed as reduction in cell viability measured after 72 hrs by MTT assay. The following applies: SMMC-7721, 72 h. The format is functional, cell-based.
The nature of data set [3]: Cytotoxicity against mouse HL-1 cells assessed as cell viability incubated for 24 hrs by CytoTox-Glo luminescence assay relative to control. Format: toxicity, cell-based.
The test system of data set [4] is MCF7. As to the kind of experiment: Cytotoxicity against human MCF7 cells assessed as reduction in cell growth measured after 48 hrs by MTT assay. The format is functional, cell-based. As to conditions: MCF7, 48 h.
Data set [5] can be described thus: Cytotoxicity against human MRC5 cells assessed as reduction in cell growth measured after 48 hrs by MTT assay. Format: toxicity, cell-based.
The test system of the next data set is Plasmodium falciparum. The data set can be described thus: Antiplasmodial activity against chloroquine-sensitive Plasmodium falciparum NF54 assessed as reduction in parasite growth. The format is functional, organism-based.
Data set [6] has as its system Mycobacterium tuberculosis. As to the kind of experiment: Antimycobacterial activity against Mycobacterium tuberculosis H37Rv assessed as inhibition of bacterial growth by microplate alamar blue assay. The format is functional. For orientation: Resazurin is reduced to fluorescent resorufin, in cell work by metabolically active cells.

As for `N/C(=N\N=C\c1ccccc1)c1cnccn1`, in the data set with A549, the IC50 was found to be 0.173 mg/L (≈ 0.768 µM).

Take `C[C@@H]1[C@]2(O[C@H]3C=C4[C@@H]5CC[C@H]6Cc7nc8c(nc7C[C@]6(C)[C@H]5C[C@@H](O)[C@]4(C)[C@]31O)C[C@@H]1CC[C@H]3C4=CC[C@@H]5[C@H](C)[C@@]6(OC[C@]45C(=O)C[C@@H]3[C@@]1(C)C8)OC(C)(C)C[C@H]6O)O[C@](C)(CO)C[C@H]2O` [CEPHALOSTATIN 1]: the IC50 in the data set with DU-145 stood at 0.11 nM; in the data set on MCF7 [1], 0.099 nM; with NCI-H460 it was 0.044 nM.

`COc1cccc(/C=N/C(=O)c2cnccn2)c1O`: the IC50 (in the data set with SGC-7901; in [2]; with SMMC-7721) was 300 nM throughout.

On to `S=C(N/N=C(\c1ccccc1)c1ccccn1)Nc1ccccc1`, for which, in [3], the IC50 at 24 h is 1430 nM.

In the case of `C/C(=N\NC(=S)N1CCCCC1)c1cnccn1`, the IC50 with MCF7 [4] stood at 3820 nM. Besides, in data set [5], the IC50 at 48 h was over 60000 nM.

For `O=C(NCCNc1ccnc2cc(Cl)ccc12)c1cnccn1`, the IC50 in the data set on Plasmodium falciparum worked out at 647 nM. Also, the MIC99 in [6] is 320 µM (≈ 105 µg/mL).
